Species on record: Rattus norvegicus
Assay: Open TG-GATES - Regimen: Single
Assay type: toxicity, organism-based, Sprague-Dawley
Set-up: regimen Single, gender Male, age 6 weeks
Details: in vivo, po, route gavage; for APTT / Bas / Eos / Fbg / Hb / Ht / Lym / MCH / MCHC / MCV / Mono / Neu / PT / Plat / RBC / Ret / WBC: tissue Blood; for KIDNEY_L / KIDNEY_R / KIDNEY_TOTAL: tissue Kidney; for LIVER: tissue Liver; for A/G / ALP / ALT / AST / BUN / CRE / Ca / Cl / DBIL / GLC / IP / K / LDH / Na / PL / RALB / TBIL / TC / TG / TP / gamma-GTP: tissue Plasma
[1] = 30 mg/kg, 3 h, dose level Middle
[2] = 30 mg/kg, 6 h, dose level Middle
[3] = 30 mg/kg, 9 h, dose level Middle
[4] = 30 mg/kg, 24 h, dose level Middle
[5] = 100 mg/kg, 3 h, dose level High
[6] = 100 mg/kg, 6 h, dose level High
[7] = 100 mg/kg, 9 h, dose level High
[8] = 100 mg/kg, 24 h, dose level High

CCN(CC)N=O [N-NITROSODIETHYLAMINE]
TERMINAL_BW [1]: 220.7 g
APTT [1]: 19.6 s
Bas [1]: 0%
Eos [1]: 1%
Fbg [1]: 200.2 mg/dL
Hb [1]: 13.1 g/dL
Ht [1]: 37.7%
Lym [1]: 80.2%
MCH [1]: 21.4 pg
MCHC [1]: 34.6%
MCV [1]: 61.8 fL
Mono [1]: 1.6%
Neu [1]: 16.6%
PT [1]: 12 s
Plat [1]: 118.4 x10_4/uL
RBC [1]: 610.2 x10_4/ul
Ret [1]: 7.2%
WBC [1]: 67.1 x10_2/uL
KIDNEY_L [1]: 1 g
KIDNEY_R [1]: 1 g
KIDNEY_TOTAL [1]: 2 g
LIVER [1]: 9.5 g
A/G [1]: 1.6
ALP [1]: 868.6 IU/L
ALT [1]: 37.8 IU/L
AST [1]: 72 IU/L
BUN [1]: 11 mg/dL
CRE [1]: 0.4 mg/dL
Ca [1]: 10.1 mg/dL
Cl [1]: 102.4 meq/L
DBIL [1]: 0.06 mg/dL
GLC [1]: 195.6 mg/dL
IP [1]: 8.6 mg/dL
K [1]: 3.6 meq/L
LDH [1]: 179.2 IU/L
Na [1]: 140.6 meq/L
PL [1]: 130.2 mg/dL
RALB [1]: 3.3 g/dL
TBIL [1]: 0.1 mg/dL
TC [1]: 82.6 mg/dL
TG [1]: 38.6 mg/dL
TP [1]: 5.4 g/dL
gamma-GTP [1]: 0.8 IU/L
TERMINAL_BW [2]: 224.6 g
APTT [2]: 18.5 s
Bas [2]: 0.6%
Eos [2]: 1%
Fbg [2]: 234.2 mg/dL
Hb [2]: 13.4 g/dL
Ht [2]: 38.8%
Lym [2]: 78.8%
MCH [2]: 21.8 pg
MCHC [2]: 34.5%
MCV [2]: 63.1 fL
Mono [2]: 2.8%
Neu [2]: 16.2%
PT [2]: 12.4 s
Plat [2]: 135.1 x10_4/uL
RBC [2]: 615.6 x10_4/ul
Ret [2]: 7.7%
WBC [2]: 111.7 x10_2/uL
KIDNEY_L [2]: 1 g
KIDNEY_R [2]: 1 g
KIDNEY_TOTAL [2]: 1.9 g
LIVER [2]: 9.9 g
A/G [2]: 1.6
ALP [2]: 932.2 IU/L
ALT [2]: 40.6 IU/L
AST [2]: 78 IU/L
BUN [2]: 14.2 mg/dL
CRE [2]: 0.4 mg/dL
Ca [2]: 10.3 mg/dL
Cl [2]: 104.2 meq/L
DBIL [2]: 0.072 mg/dL
GLC [2]: 186.4 mg/dL
IP [2]: 8.3 mg/dL
K [2]: 3.9 meq/L
LDH [2]: 224 IU/L
Na [2]: 141 meq/L
PL [2]: 130.8 mg/dL
RALB [2]: 3.3 g/dL
TBIL [2]: 0.1 mg/dL
TC [2]: 81.4 mg/dL
TG [2]: 37.8 mg/dL
TP [2]: 5.4 g/dL
gamma-GTP [2]: 1.6 IU/L
TERMINAL_BW [3]: 224.1 g
APTT [3]: 18.7 s
Bas [3]: 0.4%
Eos [3]: 1%
Fbg [3]: 229 mg/dL
Hb [3]: 13.7 g/dL
Ht [3]: 39.6%
Lym [3]: 79.6%
MCH [3]: 21.5 pg
MCHC [3]: 34.4%
MCV [3]: 62.4 fL
Mono [3]: 3%
Neu [3]: 15%
PT [3]: 12.4 s
Plat [3]: 126.6 x10_4/uL
RBC [3]: 635.4 x10_4/ul
Ret [3]: 7.1%
WBC [3]: 94.4 x10_2/uL
KIDNEY_L [3]: 1 g
KIDNEY_R [3]: 1 g
KIDNEY_TOTAL [3]: 1.9 g
LIVER [3]: 10 g
A/G [3]: 1.7
ALP [3]: 978.4 IU/L
ALT [3]: 45.6 IU/L
AST [3]: 80.4 IU/L
BUN [3]: 15.4 mg/dL
CRE [3]: 0.4 mg/dL
Ca [3]: 10.4 mg/dL
Cl [3]: 103.4 meq/L
DBIL [3]: 0.088 mg/dL
GLC [3]: 186 mg/dL
IP [3]: 8.6 mg/dL
K [3]: 3.8 meq/L
LDH [3]: 191.6 IU/L
Na [3]: 141.2 meq/L
PL [3]: 130.4 mg/dL
RALB [3]: 3.5 g/dL
TBIL [3]: 0.1 mg/dL
TC [3]: 76.8 mg/dL
TG [3]: 44.8 mg/dL
TP [3]: 5.5 g/dL
gamma-GTP [3]: 1.4 IU/L
TERMINAL_BW [4]: 225 g
APTT [4]: 17.9 s
Bas [4]: 1%
Eos [4]: 1%
Fbg [4]: 217.4 mg/dL
Hb [4]: 14 g/dL
Ht [4]: 41.2%
Lym [4]: 81%
MCH [4]: 21.6 pg
MCHC [4]: 33.9%
MCV [4]: 63.8 fL
Mono [4]: 3%
Neu [4]: 13.6%
PT [4]: 12.7 s
Plat [4]: 125.9 x10_4/uL
RBC [4]: 645.6 x10_4/ul
Ret [4]: 6.7%
WBC [4]: 95.1 x10_2/uL
KIDNEY_L [4]: 1 g
KIDNEY_R [4]: 1 g
KIDNEY_TOTAL [4]: 2 g
LIVER [4]: 9.5 g
A/G [4]: 1.6
ALP [4]: 918.6 IU/L
ALT [4]: 37.8 IU/L
AST [4]: 71 IU/L
BUN [4]: 12.8 mg/dL
CRE [4]: 0.4 mg/dL
Ca [4]: 10.7 mg/dL
Cl [4]: 103.4 meq/L
DBIL [4]: 0.084 mg/dL
GLC [4]: 193 mg/dL
IP [4]: 9 mg/dL
K [4]: 3.9 meq/L
LDH [4]: 212.4 IU/L
Na [4]: 140.6 meq/L
PL [4]: 135.8 mg/dL
RALB [4]: 3.3 g/dL
TBIL [4]: 0.1 mg/dL
TC [4]: 78.4 mg/dL
TG [4]: 47.2 mg/dL
TP [4]: 5.3 g/dL
gamma-GTP [4]: 1.4 IU/L
TERMINAL_BW [5]: 221.2 g
APTT [5]: 19.4 s
Bas [5]: 0%
Eos [5]: 1%
Fbg [5]: 208.2 mg/dL
Hb [5]: 13.2 g/dL
Ht [5]: 38.5%
Lym [5]: 77.2%
MCH [5]: 21.5 pg
MCHC [5]: 34.2%
MCV [5]: 62.7 fL
Mono [5]: 1.4%
Neu [5]: 19.2%
PT [5]: 12 s
Plat [5]: 113.8 x10_4/uL
RBC [5]: 613.8 x10_4/ul
Ret [5]: 7.2%
WBC [5]: 60.2 x10_2/uL
KIDNEY_L [5]: 1 g
KIDNEY_R [5]: 1 g
KIDNEY_TOTAL [5]: 2 g
LIVER [5]: 9 g
A/G [5]: 1.7
ALP [5]: 781 IU/L
ALT [5]: 39.6 IU/L
AST [5]: 73.6 IU/L
BUN [5]: 9.8 mg/dL
CRE [5]: 0.4 mg/dL
Ca [5]: 10.2 mg/dL
Cl [5]: 102.2 meq/L
DBIL [5]: 0.056 mg/dL
GLC [5]: 191 mg/dL
IP [5]: 8.5 mg/dL
K [5]: 3.5 meq/L
LDH [5]: 162 IU/L
Na [5]: 140.8 meq/L
PL [5]: 124.8 mg/dL
RALB [5]: 3.4 g/dL
TBIL [5]: 0.1 mg/dL
TC [5]: 85 mg/dL
TG [5]: 24.2 mg/dL
TP [5]: 5.5 g/dL
gamma-GTP [5]: 1.2 IU/L
TERMINAL_BW [6]: 218 g
APTT [6]: 18.8 s
Bas [6]: 0.4%
Eos [6]: 0.8%
Fbg [6]: 214.6 mg/dL
Hb [6]: 13.2 g/dL
Ht [6]: 38.2%
Lym [6]: 80.2%
MCH [6]: 21.2 pg
MCHC [6]: 34.6%
MCV [6]: 61.4 fL
Mono [6]: 2%
Neu [6]: 16%
PT [6]: 12.7 s
Plat [6]: 142.5 x10_4/uL
RBC [6]: 623 x10_4/ul
Ret [6]: 6.6%
WBC [6]: 83.6 x10_2/uL
KIDNEY_L [6]: 1 g
KIDNEY_R [6]: 1 g
KIDNEY_TOTAL [6]: 2 g
LIVER [6]: 9.8 g
A/G [6]: 1.6
ALP [6]: 784.2 IU/L
ALT [6]: 38.2 IU/L
AST [6]: 73.4 IU/L
BUN [6]: 12 mg/dL
CRE [6]: 0.4 mg/dL
Ca [6]: 10.2 mg/dL
Cl [6]: 103.4 meq/L
DBIL [6]: 0.068 mg/dL
GLC [6]: 192.8 mg/dL
IP [6]: 8.3 mg/dL
K [6]: 3.5 meq/L
LDH [6]: 207.8 IU/L
Na [6]: 140.4 meq/L
PL [6]: 103.6 mg/dL
RALB [6]: 3.4 g/dL
TBIL [6]: 0.1 mg/dL
TC [6]: 68.8 mg/dL
TG [6]: 24 mg/dL
TP [6]: 5.5 g/dL
gamma-GTP [6]: 1.4 IU/L
TERMINAL_BW [7]: 225.6 g
APTT [7]: 19.6 s
Bas [7]: 0.6%
Eos [7]: 1%
Fbg [7]: 226.6 mg/dL
Hb [7]: 13.7 g/dL
Ht [7]: 39.4%
Lym [7]: 71.6%
MCH [7]: 21.4 pg
MCHC [7]: 34.9%
MCV [7]: 61.4 fL
Mono [7]: 5%
Neu [7]: 20.4%
PT [7]: 13.8 s
Plat [7]: 122.7 x10_4/uL
RBC [7]: 642 x10_4/ul
Ret [7]: 6.9%
WBC [7]: 78.5 x10_2/uL
KIDNEY_L [7]: 1 g
KIDNEY_R [7]: 1 g
KIDNEY_TOTAL [7]: 2 g
LIVER [7]: 9.7 g
A/G [7]: 1.6
ALP [7]: 795 IU/L
ALT [7]: 35.6 IU/L
AST [7]: 87.8 IU/L
BUN [7]: 14.2 mg/dL
CRE [7]: 0.4 mg/dL
Ca [7]: 10.3 mg/dL
Cl [7]: 103.2 meq/L
DBIL [7]: 0.064 mg/dL
GLC [7]: 194.4 mg/dL
IP [7]: 8.2 mg/dL
K [7]: 3.7 meq/L
LDH [7]: 267.2 IU/L
Na [7]: 141.6 meq/L
PL [7]: 110.4 mg/dL
RALB [7]: 3.4 g/dL
TBIL [7]: 0.1 mg/dL
TC [7]: 73.4 mg/dL
TG [7]: 28.2 mg/dL
TP [7]: 5.5 g/dL
gamma-GTP [7]: 1.6 IU/L
TERMINAL_BW [8]: 216.1 g
APTT [8]: 19 s
Bas [8]: 0.8%
Eos [8]: 1.2%
Fbg [8]: 225.6 mg/dL
Hb [8]: 15.1 g/dL
Ht [8]: 44.4%
Lym [8]: 72.4%
MCH [8]: 21 pg
MCHC [8]: 34%
MCV [8]: 61.7 fL
Mono [8]: 6%
Neu [8]: 17.8%
PT [8]: 17 s
Plat [8]: 130.3 x10_4/uL
RBC [8]: 720.2 x10_4/ul
Ret [8]: 6.5%
WBC [8]: 83.1 x10_2/uL
KIDNEY_L [8]: 1 g
KIDNEY_R [8]: 1 g
KIDNEY_TOTAL [8]: 2 g
LIVER [8]: 8.2 g
A/G [8]: 1.7
ALP [8]: 955.6 IU/L
ALT [8]: 56.2 IU/L
AST [8]: 160 IU/L
BUN [8]: 13.4 mg/dL
CRE [8]: 0.4 mg/dL
Ca [8]: 10.4 mg/dL
Cl [8]: 104.2 meq/L
DBIL [8]: 0.1 mg/dL
GLC [8]: 179.6 mg/dL
IP [8]: 8.4 mg/dL
K [8]: 4.1 meq/L
LDH [8]: 348.8 IU/L
Na [8]: 140.6 meq/L
PL [8]: 112.2 mg/dL
RALB [8]: 3.3 g/dL
TBIL [8]: 0.2 mg/dL
TC [8]: 65.2 mg/dL
TG [8]: 25.6 mg/dL
TP [8]: 5.3 g/dL
gamma-GTP [8]: 1.8 IU/L
